Data published in PMC11207335, “In Vitro Metabolism and Transport Characteristics of Zastaprazan” (Pharmaceutics, 2024).
Read-outs that look alike come from different tables or passages of the source.

Key:
human liver microsomes = test: JP-1366 metabolism in human liver microsomes with NADPH, with or without SKF-525A; type: in vitro ADME
[1] = parameters: method as in PMID 29863280, doi:10.1007/s11938-020-00330-x; conditions: no signs of hepatotoxicity; cited from earlier work
CYP3A4 [2] = test system: CYP3A4; parameters: method as in PMID 34072547; conditions: cited from earlier work
erosive esophagitis = test system: erosive esophagitis; parameters: method as in PMID 36504556; conditions: 8-week treatment, patients with erosive esophagitis; cited from earlier work
CYP3A4 [3] = test system: CYP3A4; parameters: method as in PMID 35745870; conditions: cited from earlier work
gastric pH [4] = test system: gastric pH; parameters: method as in PMID 35146797; conditions: 50 mg of tegoprazan dose; cited from earlier work
porcine H^+/K^+-ATPase = molecular target: porcine H^+/K^+-ATPase; parameters: method as in PMID 35745870, PMID 33355910; conditions: reversible inhibition; cited from earlier work
gastric pH [5] = test system: gastric pH; parameters: method as in PMID 31437865; conditions: cited from earlier work
[6] = molecular target: T1, human cDNA-expressed UGT2B17 (Homo sapiens, UniProt O75795); test: Enzyme kinetics of M1 glucuronidation to M15 in cDNA-expressed UGT2B17; type: in vitro ADME; conditions: formation of M15 from M1, UGT2B17
T1 construct: purchased Corning Life Sciences
T1 sequence (O75795 24-530): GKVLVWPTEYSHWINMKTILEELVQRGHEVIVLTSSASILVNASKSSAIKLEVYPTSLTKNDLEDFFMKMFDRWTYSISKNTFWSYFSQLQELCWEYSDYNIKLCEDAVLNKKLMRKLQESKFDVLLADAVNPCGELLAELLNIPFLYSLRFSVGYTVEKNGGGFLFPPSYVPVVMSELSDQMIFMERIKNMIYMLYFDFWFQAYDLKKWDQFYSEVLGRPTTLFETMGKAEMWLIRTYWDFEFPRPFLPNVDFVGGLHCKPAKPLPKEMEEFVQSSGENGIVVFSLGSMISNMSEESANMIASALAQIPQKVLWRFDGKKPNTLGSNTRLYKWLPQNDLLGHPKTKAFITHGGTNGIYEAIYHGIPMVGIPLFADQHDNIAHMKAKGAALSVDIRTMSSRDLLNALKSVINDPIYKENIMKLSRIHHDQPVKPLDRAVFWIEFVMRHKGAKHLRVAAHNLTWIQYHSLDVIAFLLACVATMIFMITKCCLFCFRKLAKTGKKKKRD
Protocol: (§1) By adding 5 μL of UDPGA (final concentration, 5 mM), the reaction was initiated, and the mixture was further incubated for 30 min at 37 °C in a shaking water bath. The reaction was terminated by adding 100 μL of ice-cold acetonitrile containing 5 ng/mL of lansoprazole (IS).
(§2) The concentrations of the metabolites were quantitated, and their formation rates (pmol/mg protein/min) were calculated by dividing the amounts of metabolites formed from the incubation with human liver microsomes and human cDNA-expressed CYP or UGT enzymes by the incubation time.

[7] = molecular target: T2, human cDNA-expressed UGT2B7 (Homo sapiens, UniProt P16662); test: Enzyme kinetics of M1 glucuronidation to M15 in cDNA-expressed UGT2B7; type: in vitro ADME; conditions: formation of M15 from M1, UGT2B7
T2 construct: purchased Corning Life Sciences
T2 sequence (P16662 24-529): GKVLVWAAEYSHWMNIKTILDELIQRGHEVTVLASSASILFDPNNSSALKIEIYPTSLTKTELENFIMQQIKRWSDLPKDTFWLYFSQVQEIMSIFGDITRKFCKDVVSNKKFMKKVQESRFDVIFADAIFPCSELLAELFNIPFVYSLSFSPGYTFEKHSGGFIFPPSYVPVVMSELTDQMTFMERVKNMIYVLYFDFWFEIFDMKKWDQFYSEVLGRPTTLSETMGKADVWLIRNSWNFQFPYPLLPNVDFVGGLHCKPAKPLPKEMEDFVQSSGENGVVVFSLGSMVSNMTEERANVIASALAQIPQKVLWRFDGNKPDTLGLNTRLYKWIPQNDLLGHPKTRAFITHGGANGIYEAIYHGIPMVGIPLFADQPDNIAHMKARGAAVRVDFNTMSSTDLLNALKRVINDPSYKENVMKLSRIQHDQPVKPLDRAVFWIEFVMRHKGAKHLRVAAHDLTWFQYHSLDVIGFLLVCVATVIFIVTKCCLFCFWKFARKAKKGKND
Protocol: as §1, §2

[8] = test system: human liver microsomes (HLM); test: Enzyme kinetics of M1 glucuronidation to M15 in human liver microsomes; type: in vitro ADME; conditions: formation of M15 from M1, HLM
Protocol: as §1, §2

[9] = test system: human, dog, monkey, mouse, and rat hepatocytes; test: In vitro metabolic profiling of JP-1366 in hepatocytes; type: in vitro ADME; conditions: 10 µM JP-1366, 60 min; H human, D dog, Mk monkey, M mouse, R rat
Protocol: Cryopreserved human, dog, monkey, mouse, and rat hepatocytes were purified and recovered according to the manufacturer’s protocol. […] The metabolic reaction in each sample well was quenched by adding 120 μL of ice-cold acetonitrile.
MS spectra were obtained in positive-ion mode using electrospray ionization under optimized conditions as follows: capillary temperature, 350 °C; sheath gas flow rate, 40 (arbitrary units); aux gas flow rate, 10 (arbitrary units); and aux gas heater temperature, 350 °C. Full MS scan with data-dependent MS/MS was performed from m/z 100 to m/z 1000.

[10] = test system: human liver microsomes (HLM); test: Enzyme kinetics of JP-1366 metabolism in human liver microsomes; type: in vitro ADME; conditions: for Vmax: formation of the labelled metabolite from JP-1366, HLM
Protocol: (§3) The reaction was initiated by adding 5 μL of NADPH-generating system in triplicate, and the mixture was further incubated for 30 min at 37 °C in a shaking water bath.
as §2

[11] = molecular target: T3, human cDNA-expressed CYP2C9 (Homo sapiens, UniProt P11712); test: Enzyme kinetics of JP-1366 metabolism in cDNA-expressed CYP2C9; type: in vitro ADME
T3 construct: purchased Corning Life Sciences
T3 sequence (P11712 whole entry): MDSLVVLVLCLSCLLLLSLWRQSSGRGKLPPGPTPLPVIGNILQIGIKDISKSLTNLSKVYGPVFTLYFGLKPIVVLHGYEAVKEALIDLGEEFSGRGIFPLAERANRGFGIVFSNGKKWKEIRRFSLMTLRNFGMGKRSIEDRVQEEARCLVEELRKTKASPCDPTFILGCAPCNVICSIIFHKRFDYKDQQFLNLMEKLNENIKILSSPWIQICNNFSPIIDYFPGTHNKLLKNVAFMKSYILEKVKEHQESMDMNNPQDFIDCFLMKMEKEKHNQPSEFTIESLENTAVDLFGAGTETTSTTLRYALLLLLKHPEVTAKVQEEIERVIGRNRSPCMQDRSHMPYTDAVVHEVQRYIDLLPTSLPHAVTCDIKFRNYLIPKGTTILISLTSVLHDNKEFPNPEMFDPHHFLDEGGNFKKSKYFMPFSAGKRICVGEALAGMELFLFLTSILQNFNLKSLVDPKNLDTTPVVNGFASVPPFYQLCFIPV
Protocol: as §3, §2

[12] = molecular target: T4, human cDNA-expressed CYP3A4 (Homo sapiens, UniProt P08684); test: Enzyme kinetics of JP-1366 metabolism in cDNA-expressed CYP3A4; type: in vitro ADME
T4 construct: purchased Corning Life Sciences
T4 sequence (P08684 whole entry): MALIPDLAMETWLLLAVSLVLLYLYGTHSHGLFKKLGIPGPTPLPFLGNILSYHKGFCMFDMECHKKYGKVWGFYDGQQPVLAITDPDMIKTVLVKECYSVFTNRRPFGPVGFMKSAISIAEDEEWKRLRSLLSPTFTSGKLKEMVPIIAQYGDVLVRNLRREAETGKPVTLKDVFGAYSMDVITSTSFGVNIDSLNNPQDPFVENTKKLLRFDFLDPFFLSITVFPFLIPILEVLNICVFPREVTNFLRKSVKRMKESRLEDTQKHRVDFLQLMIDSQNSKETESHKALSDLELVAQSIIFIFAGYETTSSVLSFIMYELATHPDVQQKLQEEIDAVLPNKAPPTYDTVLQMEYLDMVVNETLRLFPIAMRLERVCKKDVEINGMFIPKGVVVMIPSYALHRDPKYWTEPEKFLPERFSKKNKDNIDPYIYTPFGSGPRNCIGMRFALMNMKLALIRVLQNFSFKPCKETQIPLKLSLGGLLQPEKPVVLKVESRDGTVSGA
Protocol: as §3, §2

[13] = molecular target: T5, human cDNA-expressed CYP3A5 (Homo sapiens, UniProt P20815); test: Enzyme kinetics of JP-1366 metabolism in cDNA-expressed CYP3A5; type: in vitro ADME
T5 construct: purchased Corning Life Sciences
T5 sequence (P20815 whole entry): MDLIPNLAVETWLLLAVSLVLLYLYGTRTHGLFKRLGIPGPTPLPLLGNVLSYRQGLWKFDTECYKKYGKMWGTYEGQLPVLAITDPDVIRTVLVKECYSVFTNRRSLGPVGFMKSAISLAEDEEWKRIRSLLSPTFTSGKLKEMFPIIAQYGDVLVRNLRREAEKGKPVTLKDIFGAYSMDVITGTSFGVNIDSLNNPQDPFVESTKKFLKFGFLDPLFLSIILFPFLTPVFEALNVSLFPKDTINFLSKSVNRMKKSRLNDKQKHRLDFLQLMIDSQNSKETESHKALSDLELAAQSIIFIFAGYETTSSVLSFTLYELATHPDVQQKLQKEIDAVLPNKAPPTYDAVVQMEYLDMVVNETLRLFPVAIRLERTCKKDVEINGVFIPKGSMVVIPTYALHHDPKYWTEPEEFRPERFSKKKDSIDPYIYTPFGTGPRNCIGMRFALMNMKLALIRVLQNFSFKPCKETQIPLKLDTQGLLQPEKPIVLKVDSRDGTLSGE
Protocol: as §3, §2

[14] = molecular target: T6, human cDNA-expressed CYP2C19 (Homo sapiens, UniProt P33261); test: Enzyme kinetics of JP-1366 metabolism in cDNA-expressed CYP2C19; type: in vitro ADME
T6 construct: purchased Corning Life Sciences
T6 sequence (P33261 whole entry): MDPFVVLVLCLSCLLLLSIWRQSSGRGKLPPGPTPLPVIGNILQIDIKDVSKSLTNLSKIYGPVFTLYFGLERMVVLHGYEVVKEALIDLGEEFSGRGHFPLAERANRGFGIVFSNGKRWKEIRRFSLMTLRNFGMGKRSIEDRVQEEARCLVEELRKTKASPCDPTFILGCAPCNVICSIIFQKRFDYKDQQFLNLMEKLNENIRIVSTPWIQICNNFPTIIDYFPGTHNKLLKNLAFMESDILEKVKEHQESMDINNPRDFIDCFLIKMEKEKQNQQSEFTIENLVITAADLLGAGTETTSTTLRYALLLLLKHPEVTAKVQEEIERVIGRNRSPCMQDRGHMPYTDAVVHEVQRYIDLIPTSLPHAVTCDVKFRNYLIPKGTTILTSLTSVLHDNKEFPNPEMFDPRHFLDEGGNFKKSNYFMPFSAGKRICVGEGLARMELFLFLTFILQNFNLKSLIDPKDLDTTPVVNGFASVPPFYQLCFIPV
Protocol: as §3, §2

CYP3A4/5 = test: Combined contribution of CYP3A4/5 to formation of major JP-1366 metabolites; type: in vitro ADME, human; conditions: sum of CYP3A4 and CYP3A5 contributions
Protocol: as §3, §2

[15] = molecular target: T7, human cDNA-expressed CYP2D6 (Homo sapiens, UniProt P10635); test: Enzyme kinetics of JP-1366 metabolism in cDNA-expressed CYP2D6; type: in vitro ADME
T7 construct: purchased Corning Life Sciences
T7 sequence (P10635 whole entry): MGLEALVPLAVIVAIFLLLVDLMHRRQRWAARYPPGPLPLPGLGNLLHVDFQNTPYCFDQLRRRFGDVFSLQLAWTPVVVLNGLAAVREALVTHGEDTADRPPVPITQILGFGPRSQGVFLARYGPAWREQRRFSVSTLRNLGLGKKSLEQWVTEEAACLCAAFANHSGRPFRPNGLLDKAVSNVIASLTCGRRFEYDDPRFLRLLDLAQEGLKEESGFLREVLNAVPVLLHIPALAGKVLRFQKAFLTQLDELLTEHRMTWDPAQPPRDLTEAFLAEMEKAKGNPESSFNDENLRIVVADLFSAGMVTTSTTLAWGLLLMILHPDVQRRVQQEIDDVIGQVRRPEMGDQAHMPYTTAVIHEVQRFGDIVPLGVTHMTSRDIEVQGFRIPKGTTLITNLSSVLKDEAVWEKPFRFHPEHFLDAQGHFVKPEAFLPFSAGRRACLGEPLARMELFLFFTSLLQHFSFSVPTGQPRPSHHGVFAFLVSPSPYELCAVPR
Protocol: as §3, §2

[16] = parameters: method as in PMID 16011666; conditions: cited from earlier work
gastric pH [17] = conditions: cited from earlier work; for % time pH > 4.0 over a period of 24 h: 40 mg dose group, healthy subjects
[18] = cited from earlier work
[19] = Apparent permeability in Caco-2 cells; type: in vitro ADME; conditions: human
Protocol: Caco-2 cells (passage no. 41–42) were grown in tissue culture flasks containing Dulbecco’s Modified Eagle Medium supplemented with 20% FBS, 1% nonessential amino acids, and 1% penicillin–streptomycin. […] The culture medium was replaced every other day. On the day of the experiment, the growth medium was discarded, and the attached cells were washed with prewarmed HBSS (pH 7.4) and preincubated with HBSS for 20 min at 37 °C. […] Aliquots (30 μL) of each sample were vortex-mixed with 90 μL of IS solution for 1 min, and then centrifugation was performed at 13,500 rpm at 4 °C for 5 min. Aliquots (5 μL) of the supernatant were injected into the LC-MS/MS for analysis.

esterase = conditions: 5 μM JP-1366, human liver microsomes
Protocol: The experimental protocols were performed in accordance with FDA guidelines and the previous reports with slight modifications. […] The reactions were stopped by adding 100 μL of lansoprazole (IS) in ice-cold acetonitrile (100 ng/mL).

[20] = formation of the labelled metabolite from JP-1366, CYP2C9
[21] = formation of the labelled metabolite from JP-1366, CYP3A4
[22] = formation of the labelled metabolite from JP-1366, CYP3A5
[23] = formation of the labelled metabolite from JP-1366, CYP2C19
[24] = formation of the labelled metabolite from JP-1366, CYP2D6

CCCC(C(=O)OCCN(CC)CC)(c1ccccc1)c1ccccc1 [SKF-525A, reference compound]
effect on formation of M23 from JP-1366 (human liver microsomes; SKF-525A 10 μM and 100 μM, human liver microsomes): not inhibited

CNCc1cn(S(=O)(=O)c2cccc(F)c2)c(-c2ccc(F)cc2F)c1OC [Fexuprazan]
tolerability [1]: well tolerated | contribution of CYP3A4 to formation of M11 (hydroxylation) (CYP3A4 [2]): > 60% | contribution of CYP3A4 to formation of M14 (oxidative deamination) (CYP3A4 [2]): more than 80% | erosive esophagitis healing versus esomeprazole 40 mg (erosive esophagitis): non-inferior

Cc1nc2cc(C(=O)N(C)C)cc(O[C@H]3CCOc4cc(F)cc(F)c43)c2[nH]1 [tegoprazan]
contribution of CYP3A4 to metabolism to active metabolite M1 (CYP3A4 [3]): about 75% | % time pH > 4 over a 24 h period (gastric pH [4]): 66.0 ± 15.7% | IC50 (porcine H^+/K^+-ATPase): 0.53 µM | Cmax (gastric pH [5]; 100 mg once daily, day 1): 1.413 ± 0.0247 µg/mL | Cmax (gastric pH [5]; 100 mg once daily, day 7): 0.8452 ± 0.0407 µg/mL | decrease of Cmax after repeated administration compared with a single dose (gastric pH [5]; 100 mg once daily): 40% | % time pH > 4 over a 24 h period (gastric pH [5]; repeated oral dose of 100 mg): 70.4% | % time pH > 4 over a 24 h period (gastric pH [5]; single oral dose of 50 mg, six healthy subjects): 48.9%

Cc1cccc(COC2OC(C(=O)O)C(O)C(O)C2O)c1CNc1cc(C(=O)N2CCC2)cn2c(C)c(C)nc12 (centres unmarked) [M15]
CLint [6]: 1.27 μL/min/mg Protein | Ki ([6]; substrate inhibition): 59 µM | CLint [7]: 0.60 μL/min/mg Protein | n (Hill coefficient) [7]: 0.8 | detection of metabolite after incubation of JP-1366 in human liver microsomes with NADPH (human liver microsomes; 5 μM JP-1366): not detected | CLint [8]: 1.29 μL/min/mg Protein | Vmax [8]: 74.9 pmol/min/mg Protein | n (Hill coefficient) [8]: 1.0 | Hepatocytes (species in which the metabolite was found) [9]: H, D, Mk, M, R

Cc1nc2c(N)cc(C(=O)N3CCC3)cn2c1C [M6, (8-amino-2,3-dimethylimidazo[1,2-a]pyridin-6-yl)(azetidin-1-yl)methanone]
Vmax [10]: 798.8 pmol/min/mg protein | Ki ([10]; substrate inhibition kinetics, formation of the labelled metabolite, HLM): 105 µM | CLint [11, 20]: 0.0070 μL/min/pmol CYP | n (Hill coefficient) [11, 20]: 0.7 | Contribution (%) ([11]; relative contribution of CYP2C9 to formation of the labelled metabolite): 2.8% | CLint [12, 21]: 0.77 μL/min/pmol CYP | n (Hill coefficient) [12, 21]: 1.8 | Contribution (%) ([12]; relative contribution of CYP3A4 to formation of the labelled metabolite): 28.1% | CLint [13, 22]: 0.41 μL/min/pmol CYP | n (Hill coefficient) [13, 22]: 1.5 | Contribution (%) ([13]; relative contribution of CYP3A5 to formation of the labelled metabolite): 68.9% | CLint [14, 23]: 0.0023 μL/min/pmol CYP | n (Hill coefficient) [14, 23]: 0.6 | Contribution (%) ([14]; relative contribution of CYP2C19 to formation of the labelled metabolite): 0.1% | Hepatocytes (species in which the metabolite was found) [9]: H, D, Mk, M, R | contribution of CYP3A4/5 to formation of the metabolite from JP-1366 (CYP3A4/5): 97.0% | CLint [15, 24]: 0.0015 μL/min/pmol CYP | n (Hill coefficient) [15, 24]: 0.7 | Contribution (%) ([15]; relative contribution of CYP2D6 to formation of the labelled metabolite): 0.1%

COc1ccc2[nH]c([S+]([O-])Cc3ncc(C)c(OC)c3C)nc2c1 (centres unmarked) [omeprazole]
plasma exposure in poor metabolizers with a CYP2C19 mutation [16]: five-fold higher

COc1ccc2nc([S@@+]([O-])Cc3ncc(C)c(OC)c3C)[nH]c2c1 [esomeprazole, reference compound]
% time pH > 4.0 over a period of 24 h (gastric pH [17]; MAD): 56.56% ± 22.47% | % time pH > 4.0 over a period of 24 h (gastric pH [17]; SAD): 72.06% ± 13.43% | % time pH > 4 at nighttime (gastric pH [17]; repeated 40 mg dose): 56.56% ± 22.47%

CNCc1cc(-c2ccccc2F)n(S(=O)(=O)c2cccnc2)c1 [Vonoprazan]
pKa [18]: 9.37

Cc1cccc(C)c1CNc1cc(C(=O)O)cn2c(C)c(C)nc12 [M23, 8-((2,6-dimethylbenzyl)amino)-2,3-dimethylimidazo[1,2-a]pyridine-6-carboxylic acid]
Vmax [10]: 23.2 pmol/min/mg protein | Hepatocytes (species in which the metabolite was found) [9]: H, D, M, R

CC(C)NCC(O)COc1cccc2ccccc12 (centres unmarked) [Propranolol, reference compound]
Papp A→B at 1 h, 4 µM ([19]; Caco-2, pH 7.4): 97.5 ± 6.8 nm/s | Papp B→A at 1 h, 4 µM ([19]; Caco-2, pH 7.4): 122 ± 15.1 nm/s | efflux ratio at 1 h, 4 µM ([19]; pH 7.4, Caco-2, mean Papp,BA / mean Papp,AB, read-out: ER): 1.3

[F-].[Na+] [NaF]
inhibition of formation of M23 from JP-1366 (esterase; 100 μM NaF): 18.9% ± 3.9% | inhibition of formation of M23 from JP-1366 (esterase; 1000 μM NaF): 73.3% ± 0.3%
